For one experiment, the target named is IDH1 R132C (Homo sapiens, UniProt O75874, R132C). Description: Effect on IDH1 R132C enzyme activity (NADPH consumption, diaphorase/resazurin fluorescence). The format is biochemical. The conditions noted are these: 80 ng IDH1 R132C, α-KG 2 mM, NADPH 20 μM, 60 min preincubation. Here is the method:
(§1) Test method: The enzyme activity of IDH1 converting α-KG to 2HG was measured by the consumption of NADPH. After the enzymatic reaction finished, the amount of residual NADPH can be reflected by fluorescence signal generated by the addition of catalytically excessive diphhorase and reazurin.
50 μL mixed liquid of substrate α-KG and NADPH (final concentration of substrate α-KG was 2 mM, final concentration of NADPH was 20 μM), and the plate was incubated in dark for 60 min at room temperature. Detection reaction: 50 μL 1×detection buffer diluted 0.01 unit diabase and 30 μM resazurin were added into each well, and the mixture was incubated in dark at room temperature for 10 min. […] IC50 value was calculated by GraphPad Prism software.

A further experiment has as its target IDH1 R132H (Homo sapiens, UniProt O75874, R132H). Kind of experiment: Effect on IDH1 R132H enzyme activity (NADPH consumption, diaphorase/resazurin fluorescence). The format is biochemical. The settings on record: 100 ng IDH1 R132H, α-KG 1 mM, NADPH 20 μM, 60 min preincubation. Here is the method: as §1
50 μL mixed liquid of substrate α-KG and NADPH (final concentration of substrate α-KG was 1 mM, final concentration of NADPH was 20 μM), and the mixture was incubated in dark for 60 min at room temperature. Detection reaction: 50 μL 1×detection buffer diluted 0.01 unit diabase and 30 μM resazurin were added into each well, and the mixture was incubated in dark at room temperature for 10 min. […] IC50 value was calculated by GraphPad Prism software.
(Resazurin is reduced to fluorescent resorufin, in cell work by metabolically active cells.)

Experiment [1] relates to 2HG of fibrosarcoma cell line HT1080 expressing IDH1 mutant IDH1-R132C. Description: Inhibition of 2HG of fibrosarcoma cell line HT1080. The settings on record: Homo sapiens, HT-1080; HT1080 cells, 48 hours with compound, 2HG in cell supernatant; read-out: HT1080 2HG inhibitory IC50. The format is cell-based. Here is the method:
In this experiment, the inhibitory activity of the compound of the disclosure on the concentration level of 2HG of the fibrosarcoma cell line HT1080 was determined by the following method.
The cells were digested with trypsin and inoculated into a 24 well cell culture plate with a density of 10000 cells/well. The cells were cultured in a 5% CO2 cell incubator at 37° C. After overnight culture, the test compound was added to the cells. The final concentration of DMSO was 0.1%, and DMSO was used as control. The plate was then placed in a cell incubator and cultured for 48 hours.
Detection of 2HG: 2-HG was measured by PicoProbe™ D-2-Hydroxyglutarate (D2HG) Assay Kit of BioVision. 500 uL cell supernatant was taken from each well and added to a 10 kD centrifuge column, 12000 g, and centrifuged for 10 minutes to remove the effect of enzyme activity. […] IC50 value was calculated by GraphPad Prism software.
The inhibition rate of the sample was obtained by the following formula: […]
IC50 value was calculated by GraphPad Prism software.

Sequence of IDH1 R132H (O75874 whole entry R132H): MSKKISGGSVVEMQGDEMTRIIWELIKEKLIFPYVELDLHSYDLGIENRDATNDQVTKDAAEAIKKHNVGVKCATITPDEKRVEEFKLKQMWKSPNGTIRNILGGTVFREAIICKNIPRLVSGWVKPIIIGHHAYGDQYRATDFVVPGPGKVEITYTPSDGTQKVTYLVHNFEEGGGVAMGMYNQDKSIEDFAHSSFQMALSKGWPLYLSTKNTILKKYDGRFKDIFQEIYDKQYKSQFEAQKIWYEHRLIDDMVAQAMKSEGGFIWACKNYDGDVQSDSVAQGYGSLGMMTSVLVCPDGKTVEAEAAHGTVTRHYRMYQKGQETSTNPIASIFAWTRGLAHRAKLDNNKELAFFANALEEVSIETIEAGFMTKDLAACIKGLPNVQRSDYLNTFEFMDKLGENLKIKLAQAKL
Sequence of IDH1 R132C (O75874 whole entry R132C): as the sequence (O75874 whole entry R132H) above, with H132C counted along it

For `C[C@H](Nc1nccc(N2C(=O)OC[C@@H]2[C@H](C)F)n1)c1ncn2c1CCCc1cc(C(F)(F)F)ccc1-2` [Compound 13, (R)-4-((S)-1-fluoroethyl)-3-(2-(((S)-1-(8-trifluoromethyl-5,6-dihydro-4H-benzo[f]imidazo[1,5-a]azepin-3-yl)ethyl)amino)pyrimidin-4-yl)oxazolidin-2-one], the 50% inhibitory concentration (IC50) is below 50 nM on IDH1 R132C, below 50 nM against IDH1 R132H and 35 nM in experiment [1].

For the compound `C[C@H](Nc1nccc(N2C(=O)OC3(COC3)[C@@H]2c2ccccc2)n1)c1ncn2c1CCc1cc(C(F)(F)F)ccc1-2` [Compound 16, (S)-8-phenyl-7-(2-(((S)-1-(7-trifluoromethyl-4,5-dihydroimidazo[1,5-a]quinolin-3-yl)ethyl)amino)pyrimidin-4-yl)-2,5-dioxa-7-azaspiro[3.4]octan-6-one], the IC50 on IDH1 R132C was below 50 nM; against IDH1 R132H, below 50 nM; in experiment [1], 140 nM.

Take `CC(C)[C@H]1C(C)OC(=O)N1c1ccnc(N[C@@H](C)c2ncn3c2CCc2cc(C(F)(F)F)ccc2-3)n1` (stereo partly drawn) [Compound 17, (4S)-4-isopropyl-5-methyl-3-(2-(((S)-1-(7-trifluoromethyl-4,5-dihydroimidazo[1,5-a]quinolin-3-yl)ethyl)amino)pyrimidin-4-yl)oxazolidin-2-one]: the IC50 at IDH1 R132C is below 50 nM; at IDH1 R132H, below 50 nM; in experiment [1] it was 87 nM.

With `CC(C)[C@@H]1N(c2ccnc(N[C@@H](C)c3ncn4c3CCc3cc(C(F)(F)F)ccc3-4)n2)C(=O)OC1(C)C` [Compound 18, (S)-4-isopropyl-5,5-dimethyl-3-(2-(((S)-1-(7-trifluoromethyl-4,5-dihydroimidazo[1,5-a]quinolin-3-yl)ethyl)amino)pyrimidin-4-yl)oxazolidin-2-one], the concentration for half-maximal inhibition (IC50) against IDH1 R132C is below 50 nM; on IDH1 R132H, 50 to 500 nM; in experiment [1], 26 nM.

Turning to `C[C@H](Nc1nccc(N2C(=O)OC[C@@H]2c2ccccc2)n1)c1ncn2c1CCc1cc(C(F)(F)F)ccc1-2` [Compound 20, (S)-4-phenyl-3-(2-(((S)-1-(7-trifluoromethyl-4,5-dihydroimidazo[1,5-a]quinolin-3-yl)ethyl)amino)pyrimidin-4-yl)oxazolidin-2-one], the results for the half-maximal inhibitory concentration (IC50) (against IDH1 R132C; against IDH1 R132H; in experiment [1]) were below 50 nM, below 50 nM and 7 nM, respectively.

Turning to `C[C@H](Nc1nccc(N2C(=O)OC[C@@H]2[C@H](C)F)n1)c1ncn2c1CSc1cc(C(F)(F)F)ccc1-2` [Compound 21, (R)-4-((S)-1-fluoroethyl)-3-(2-(((S)-1-(7-trifluoromethyl-4H-benzo[b]imidazo[1,5-d][1,4]thiazin-3-yl)ethyl)amino)pyrimidin-4-yl)oxazolidin-2-one], the IC50 at IDH1 R132C was below 50 nM; at IDH1 R132H, below 50 nM; in experiment [1], 17 nM.

On to `C[C@H](Nc1nccc(N2C(=O)OC[C@@H]2C2CC2)n1)c1ncn2c1COc1cc(Cl)ccc1-2` [Compound 22, (S)-3-(2-(((S)-1-(7-chloro-4H-benzo[b]imidazo[1,5-d][1,4]oxazin-3-yl)ethyl)amino)pyrimidin-4-yl)-4-cyclopropyloxazolidin-2-one], for which the concentration for half-maximal inhibition (IC50) is below 50 nM against IDH1 R132C, 50 to 500 nM at IDH1 R132H and 104 nM in experiment [1].

With `Cc1ccc2c(c1)CCc1c([C@H](C)Nc3nccc(N4C(=O)OC[C@@H]4[C@H](C)F)n3)ncn1-2` [Compound 23, (R)-4-((S)-1-fluoroethyl)-3-(2-(((S)-1-(7-methyl-4,5-dihydroimidazo[1,5-a]quinolin-3-yl)ethyl)amino)pyrimidin-4-yl)oxazolidin-2-one], the values for the IC50 (at IDH1 R132C; on IDH1 R132H; in experiment [1]) were below 50 nM, below 50 nM and 22 nM, respectively.

Regarding `C[C@H](Nc1nccc(N2C(=O)OC[C@@H]2[C@H](C)F)n1)c1ncn2c1COc1cc(C3CC3)ccc1-2` [Compound 26, (R)-3-(2-(((S)-1-(7-cyclopropyl-4H-benzo[b]imidazo[1,5-d][1,4]oxazin-3-yl)ethyl)amino)pyrimidin-4-yl)-4-((S)-1-fluoroethyl)oxazolidin-2-one], the IC50 on IDH1 R132C was below 50 nM; on IDH1 R132H, below 50 nM; in experiment [1], 167 nM.

In the case of `C[C@H](Nc1nccc(N2C(=O)OC[C@@H]2[C@H](C)F)n1)c1ncn2c1CCc1ccc(C(F)(F)F)cc1-2` [Compound 28, (R)-4-((S)-1-fluoroethyl)-3-(2-(((S)-1-(8-trifluoromethyl-4,5-dihydroimidazo[1,5-a]quinolin-3-yl)ethyl)amino)pyrimidin-4-yl)oxazolidin-2-one], the values for the half-maximal inhibitory concentration (IC50) (on IDH1 R132C; against IDH1 R132H; in experiment [1]) were below 50 nM, below 50 nM and 13 nM, respectively.

In general, IC50 refers to the point on the concentration scale where inhibition reaches its midpoint.

Values taken from patent publication US20210253595A1, “2-Aminopyrimidine Derivative and Preparation Method and Use Thereof” (Etern Biopharma (Shanghai) Co., Ltd., priority 2018, published 2021).
